Measured values as given in PMC9013686, “Inter-individual variation in chlorpyrifos toxicokinetics characterized by physiologically based kinetic (PBK) and Monte Carlo simulation comparing human liver microsome and Supersome™ cytochromes P450 (CYP)-specific kinetic data as model input” (Archives of Toxicology, 2022).

Columns and labels:
[1] = test system: CYP1A2, CYP2B6, CYP2C19 and CYP3A4; assay: Summed Supersome CYP kinetics scaled to whole liver; format: in vitro ADME, human
Experimental: (§1) The in vivo Kmi values were assumed to be equal to the apparent Kmi(app) values (µM) obtained in the in vitro incubations, while the in vivo Vmaxi for each CYP isoform was derived from their corresponding apparent CYP isoform Vmaxi(app) (pmol/min/pmolCYP) using Eq. 3:3 Vmaxi=Vmaxiapp×CYPiabundance×ISEF×60×MPL×1000×VL/1,000,000,
To gain a better insight in the contribution of each CYP to the metabolism of CPF in vivo at different concentrations of CPF, the apparent Supersome™ kinetic data were scaled toward the whole liver according to Eq. 3.
To evaluate the performance of the Supersomes™ together with the ISEF to predict the bioactivation of CPF, the sum of the scaled CE of the four individual Supersomes™ was compared to the CE obtained for the pooled HLMs (for both non-biphasic and biphasic scenarios).

CYP1A2 = target: T1, CYP1A2 (Homo sapiens, UniProt P05177); assay: Supersome CYP1A2 kinetic incubations; format: in vitro ADME; parameters: purchased Corning (Amsterdam, The Netherlands); host or cells: baculovirus-transfected insect cells; conditions: for Scaled Vmax(app): CYP1A2 scaled to whole liver by Eq. 3; for Vmax (app) / Km: Supersome CYP1A2; for Km: human, recombinant CYP1A2 Supersomes, pH 7.4, Km(app)
T1 sequence (P05177 2-516 limits assumed): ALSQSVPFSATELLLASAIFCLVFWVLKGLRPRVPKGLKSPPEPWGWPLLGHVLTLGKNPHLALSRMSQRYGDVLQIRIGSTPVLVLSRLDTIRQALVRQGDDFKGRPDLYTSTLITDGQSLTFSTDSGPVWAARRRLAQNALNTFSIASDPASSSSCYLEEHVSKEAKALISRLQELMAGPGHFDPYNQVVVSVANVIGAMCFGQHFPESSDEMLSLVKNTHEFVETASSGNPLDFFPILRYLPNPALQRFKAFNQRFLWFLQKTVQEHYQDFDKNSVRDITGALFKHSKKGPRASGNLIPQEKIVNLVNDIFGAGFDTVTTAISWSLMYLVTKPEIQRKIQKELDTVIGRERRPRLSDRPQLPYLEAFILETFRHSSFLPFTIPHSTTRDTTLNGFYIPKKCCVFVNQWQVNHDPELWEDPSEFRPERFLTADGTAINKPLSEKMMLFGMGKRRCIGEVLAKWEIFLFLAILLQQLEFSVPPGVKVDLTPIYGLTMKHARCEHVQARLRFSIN
Experimental: The final incubations were carried out in 50 mM Tris–HCl (pH 7.4) containing 5 mM MgCl2, 1 mM EDTA (as an A-esterase PON1 inhibitor) (Bizoń and Milnerowicz [2018]), 50 µM iso-OMPA (as a B-esterases inhibitor) (Lane et al. [2006]), Supersome™ isoform (at final concentration of 0.005 nmol CYP/ml for 1A2, 0.001 nmol CYP/ml for 2B6, 0.01 nmol CYP/ml for 2C19, and 0.01 nmol CYP/ml for 3A4) and CPF at different final concentrations (0.05, 0.1, 0.25, 0.5, 1, 5 and 10 µM for 1A2, 0.05, 0.1, 0.25, 0.5, 1, 5 10 and 25 µM for 2B6, 1, 2.5, 5, 10, 25 and 50 µM for 2C19, and 0.5, 1, 2.5, 5, 10, 25 and 50 µM for 3A4), which were added from 100 times concentrated stock solutions in ACN. After 1 min preincubation in a 37 °C water bath, 5 µl NADPH (final concentration 1 mM) was added to the incubation system. Control incubations were performed by replacing NADPH with the same amount of Tris–HCl (pH 7.4). The total volume of the incubation mixtures was 200 µl. The incubations lasted for 2 min at 37 °C and were terminated by addition of 50 µl ice cold ACN and subsquently put on ice. After that, samples were centrifuged at 16,000 g (4 ℃) for 5 min and supernatants of samples were separated into two equal portions for Ultra-Performance Liquid Chromatography-Photodiode Array (UPLC-PDA) and Liquid Chromatography Mass Spectrometry (LC–MS/MS) analysis, respectively.
To normalize for differences in intrinsic CYP activity between Supersome™ and pooled HLMs and enable scaling of the activities to the in vivo situation, CYP-specific ISEF values need to be established. […] The incubation method was similar as used for the CPF kinetic incubation assay described above, except that certain incubation conditions were replaced by the conditions listed in Table 1. The samples obtained were analyzed by UPLC-PDA for acetaminophen, 4-hydroxymephenytoin, and 6β-hydroxytestosterone formation catalyzed by 1A2, 2C19 and 3A4, or LC–MS/MS for (±)-hydroxybupropion formation catalyzed by 2B6.
(§2) As mentioned before, the in vitro apparent kinetic parameters (Vmax and Km) for pathway 1 and pathway 2 in the HLM-based approach, and pathway 3 in both approaches were all obtained directly from reported studies using pooled HLMs (Buratti et al. [2003]; Sams et al. [2004]; Zhao et al. [2019]). Therefore, no extra calculations were required to define these parameters. The kinetic parameters for the ISEF calculation, pathway 1 and 2 in the Supersome™-based approach, and pathway 4 in both approaches (25 individuals) were all obtained by fitting the experimental data to the Michaelis–Menten model using GraphPad (GraphPad Prism 5.0 software, San Diego, CA, USA). It should be noted that the kinetic parameters for pathway 4 used in the two approaches were calculated as mean of the kinetic parameters (Vmax and Km) obtained using 25 individual HP samples (with correction for total protein concentration of each plasma sample).
as §1

rat liver microsomes = conditions: bioactivation of CPF, biphasic kinetics; ref Ma and Chambers ([1995]); cited from earlier work
pooled HLMs (CYPs) = assay: CYP-mediated biotransformation of CPF in pooled HLMs (literature kinetic data); format: in vitro ADME, human; conditions: bioactivation of CPF
Description: as §2

In the case of `CCOP(=S)(OCC)Oc1nc(Cl)c(Cl)cc1Cl` [CPF, Chlorpyrifos], the “summed scaled CE of Supersomes” value ([1]; bioactivation of CPF, sum of four individual Supersomes) is reported as 1578 L/h, the “overall extrapolated Vmax from Supersome data versus HLM-derived Vmax” value ([1]; high affinity component) is reported as 1.9 fold and the “overall extrapolated Vmax from Supersome data versus HLM-derived Vmax” value ([1]; low affinity component) is reported as 0.9 fold. For the same molecule, the “Scaled Vmax(app)” value (CYP1A2; Pathway 1 (CPF to CPO)) was 51.81 µmol/h, the “Vmax (app)” value (CYP1A2; Pathway 1 (CPF to CPO)) was 3.96 pmol/min/pmolCYP and the “Scaled Vmax(app)” value (CYP1A2; Pathway 2 (CPF to TCPy)) was 38.73 µmol/h. The “Vmax (app)” value (CYP1A2; Pathway 2 (CPF to TCPy)) was 2.96 pmol/min/pmolCYP, the Km (CYP1A2; Pathway 1 (bioactivation of CPF to CPO)) was 610 nM and the Km (CYP1A2; Pathway 2 (detoxification of CPF to TCPy)) was 1250 nM. The “Km of high affinity phase lower than that of low affinity phase” value (rat liver microsomes) was 50 fold, the “CE of pooled HLM, biphasic kinetics” value (pooled HLMs (CYPs); high and low affinity phase included) was 3600 L/h and the “CE of pooled HLM, high affinity phase excluded” value (pooled HLMs (CYPs); non-biphasic) was 41 L/h.
